The values below come from PubChem BioAssay AID2252 (Southern Research Specialized Biocontainment Screening …, 2010).

pEC50: −log10 of the molar value.

The test system of the assay is THP-1 viability, CellTiter-Glo luminescence, 72 h. In words: PubChem AID 2252.

As to `C/C(=N\NC(=O)c1cccc(Br)c1)c1ccccn1`, the pEC50 (commonly the negative decadic logarithm of the EC50, by convention in mol/L) was 5.81.
The value for `COc1ccc2[nH]c3c(C)c4ccncc4c(C)c3c2c1` was 5.84; that for `CN(C)CCCNC(=S)NCC(c1ccc(Cl)cc1Cl)c1c[nH]c2ccccc12` (centres undefined) was 5.44; that for `O=C(CSc1cccc2cccnc12)Nc1ccc(S(=O)(=O)N2CCOCC2)cc1` was 4.61.
In the case of `CCCCCCC[N+](CC)(CC)CCCCc1ccc(Cl)cc1` it was 5.49.
The value for `COc1ccc(N=CC2=C(Nc3ccc(OC)cc3)c3c(C)nn(-c4ccccn4)c3CC2)cc1` was 5.67.
`Cc1cc(OCCCCCNCCO)cc(C)c1Cl`: the negative logarithm of the EC50 (pEC50) was 4.67.
Regarding `Oc1ccccc1Nc1nc(NCc2ccco2)c2ccccc2n1`, the pEC50 is 4.90.
As for `Cc1nn(-c2nc3ccccc3[nH]2)c(N)c1-c1ccccc1`, the pEC50 was 4.54.
`CN1CC=C(/C=C/c2ccc(-c3ccccc3)cc2)CC1`: the pEC50 was 4.98.
Regarding `Cc1ccccc1C(=O)N/N=C/c1ccc([N+](=O)[O-])s1`, the pEC50 was 4.78.
In the case of `CN1C(=O)/C(=C/c2cccc(Cl)c2)Sc2ccc(C(=O)N3CCCC3)cc21` it was 4.67; in that of `[O-][n+]1c2c(c3c4non(O)c4ccc31)CCCC2`, 4.32; in that of `CC1CCc2cc(F)cc3c(=O)c(C(=O)O)cn1c23` (centres undefined), more than 7.00.
With `O=C(N/N=C/c1ccc(O)cc1O)C(=O)N/N=C/c1ccc(O)cc1O`, the pEC50 was 4.92.
The value for `Cc1cc(O)c2c(c1)C(=O)C13C(=C2O)C(=O)[C@H]2[C@@H](O)[C@@H]1[C@H]1[C@H](O)[C@@H]3C(=O)C3=C(O)c4c(O)cc(C)cc4C(=O)C312` (some centres undefined) was 5.20.
In the case of `C#CCOCCOCCOCCNc1nc(N2CCN(C(=O)CCCCCCCCCCNC(=O)[C@H]([C@@H](C)CC)n3cc(CCCCCN)nn3)CC2)nc(N2CCN(C(=O)CCCCCCCCCCNC(=O)[C@@H]([C@H](C)O)n3cc(C)nn3)CC2)n1` it was 4.89; in that of `N=c1n(CCN2CCCCC2)c2ccccc2n1CC(O)c1ccc(Cl)c(Cl)c1` (centres undefined), 5.34.
The value for `Cc1cccn2c(=O)c(C=O)c(Cl)nc12` was 4.57.
Consider `COC(=O)c1cc(CSC(=N)N)ccc1OCCC(C)C`, for which the pEC50 was 4.83.
For `CCCCCCCCCCCCCCCC[N+](C)(C)C`, the pEC50 is 5.84.
In the case of `O=C(N/N=C/c1cc(Cl)ccc1O)c1ccncc1` it was 5.21; in that of `COc1ccccc1Nc1nc(NCc2ccco2)c2ccccc2n1`, 4.88; in that of `O=C(Nc1ccc(Cl)cc1)N1CCCN(Cc2ccccc2F)C1`, 4.34.
For the molecule `Cc1cc(C)n(-c2nc(NCCN(C)C)c3c4c(sc3n2)CCCC4)n1`, the pEC50 was 5.36.
The value for `c1ccc2c(SCc3cn4ccccc4n3)nncc2c1` was more than 7.00; that for `COc1ccc(/C=C/c2cc[n+](C(=O)Cc3ccccc3)cc2)cc1` was 5.41.
With `O=[N+]([O-])c1ccc(O)c(/C=N/Nc2ccccn2)c1`, the pEC50 was 6.38.
On to `Cc1ccc(S(=O)(=O)NC(C)(C)CSc2nnc(N)s2)cc1`, for which the pEC50 was more than 7.00.
With `O=C(Nc1nnc(-c2cccs2)o1)c1cccc(Oc2ccccc2)c1`, the pEC50 is 4.73.
On to `c1ccc(CN2CCN(c3nc(NCc4ccco4)c4ccccc4n3)CC2)cc1`, for which the pEC50 was 4.82.
In the case of `COc1ccc(N2CC(C(=O)N/N=C/c3cc([N+](=O)[O-])ccc3O)CC2=O)cc1` (centres undefined) it was 4.75.
In the case of `NC1=NC[C@@H](Cc2ccc(O)cc2)N1CCCCC1CCCCC1` it was 5.16; in that of `OC1(c2ccc(Cl)cc2)CCN(Cc2c[nH]c3ccccc23)CC1`, 5.01.
In the case of `O=C(Cc1ccc([N+](=O)[O-])cc1)N/N=C/c1ccc([N+](=O)[O-])o1` it was 4.92.
As to `Cc1cc(N/N=C/c2ccc(O)cc2)c2cccc(C)c2n1`, the pEC50 was 5.14.
On to `N=c1n(CCN2CCCCC2)c2ccccc2n1CC(O)COc1ccccc1` (centres undefined), for which the pEC50 was 4.54.
The value for `Cc1cc(C2N=C(N)Nc3nc4ccccc4n32)c(C)n1-c1ccccc1Cl` (centres undefined) was 4.94.
As to `c1ccc2cc(CSCc3nc4ccccc4[nH]3)ccc2c1`, the pEC50 was 4.31.
